Experimental data reported in patent US8148373B2, “Compounds” (AstraZeneca AB, priority 2008, dated 2012).
Structures can show the parent of a compound that is named as a salt.

Tests used:
[1] = target: T1, Adrenergic β2 (H292 cells) (Homo sapiens, UniProt P07550); assay: Assay for Adrenergic β2 Mediated cAMP Production (concentration response, AlphaScreen cAMP detection); type: cell-based; details: for EC50: cAMP production, 60 minutes at room temperature, 300 μM rolipram, read-out: β2 pEC50 (converted); for β2 Intrinsic activity: fraction relative to the maximum activity determined for formoterol
T1 construct: endogenous in cells; host or cells: H292 cells
T1 sequence (P07550 whole entry): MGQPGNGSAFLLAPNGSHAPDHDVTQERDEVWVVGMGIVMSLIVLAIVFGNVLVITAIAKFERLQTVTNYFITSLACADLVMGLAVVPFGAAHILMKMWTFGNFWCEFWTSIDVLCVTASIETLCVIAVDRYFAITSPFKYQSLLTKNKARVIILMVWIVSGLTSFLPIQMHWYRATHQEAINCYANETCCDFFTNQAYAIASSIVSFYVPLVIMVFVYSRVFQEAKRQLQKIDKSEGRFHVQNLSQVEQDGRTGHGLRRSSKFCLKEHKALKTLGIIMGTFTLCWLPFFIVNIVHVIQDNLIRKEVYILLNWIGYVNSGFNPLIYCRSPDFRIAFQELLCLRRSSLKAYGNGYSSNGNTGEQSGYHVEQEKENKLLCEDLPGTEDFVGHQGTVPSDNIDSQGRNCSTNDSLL
How it was run: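 H292 cells plated overnight, pre-treated with rolipram (300 μM final) 10 min, then compound 60 min at room temperature in HBSS/10 mM HEPES pH7.4/5 mM glucose, 1% DMSO. Lysate cAMP read by AlphaScreen against a cAMP standard curve; 4-parameter fit gives pEC50 and intrinsic activity as fraction of formoterol maximum.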

[2] = target: T2, human muscarinic acetylcholine M3 receptor (M3-ACh) (Homo sapiens, UniProt P20309); assay: Muscarinic 3 Receptor Binding Assay ([3H]NMS competition, SPA); details: [3H]NMS 0.1 nM, CHO-K1 cell membranes, 16 hours at room temperature; read-out: M3 pIC50 (converted)
T2 construct: expressed in transfected cells; host or cells: CHO-K1 (Chinese Hamster Ovary) cell membranes
T2 sequence (P20309 whole entry): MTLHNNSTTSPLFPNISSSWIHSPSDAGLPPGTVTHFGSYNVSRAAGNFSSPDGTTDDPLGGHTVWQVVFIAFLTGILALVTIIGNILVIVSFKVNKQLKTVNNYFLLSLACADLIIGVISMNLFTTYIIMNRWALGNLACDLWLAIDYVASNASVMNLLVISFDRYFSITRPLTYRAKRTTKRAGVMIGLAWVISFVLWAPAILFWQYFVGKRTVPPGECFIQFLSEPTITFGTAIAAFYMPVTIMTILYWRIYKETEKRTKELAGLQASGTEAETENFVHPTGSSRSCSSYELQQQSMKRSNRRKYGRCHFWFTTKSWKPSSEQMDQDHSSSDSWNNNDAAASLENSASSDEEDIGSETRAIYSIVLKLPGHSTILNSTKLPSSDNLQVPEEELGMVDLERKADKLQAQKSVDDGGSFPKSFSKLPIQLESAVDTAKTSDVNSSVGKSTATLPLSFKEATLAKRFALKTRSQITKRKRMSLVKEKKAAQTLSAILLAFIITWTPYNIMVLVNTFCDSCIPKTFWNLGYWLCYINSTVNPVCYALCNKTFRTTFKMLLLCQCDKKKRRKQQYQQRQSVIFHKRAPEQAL
How it was run: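 Competition SPA binding of 0.1 nM [3H]NMS (quarter Kd) to membranes from CHO-K1 cells expressing human M3, in 20 mM HEPES pH 7.4, 5 mM MgCl2, 1% DMSO. Incubated 16 h at room temperature; non-specific binding with 1 µM atropine. pIC50 from 50% reduction of specific binding.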

| EC50 [1] | β2 Intrinsic activity [1] | IC50 [2] | Structure (SMILES) |
| --- | --- | --- | --- |
| 0.01 µM | 0.9 | 0.00631 µM | O=C(c1csc(C2CCC2)n1)N1CCOC2(CCN(Cc3cc(F)cc(CCNC[C@H](O)c4ccc(O)c5[nH]c(=O)sc45)c3)CC2)C1 [Example 58, (R)-7-(2-(3-((4-(2-Cyclobutylthiazole-4-carbonyl)-1-oxa-4,9-diazaspiro[5.5]undecan-9-yl)methyl)-5-fluorophenethylamino)-1-hydroxyethyl)-4-hydroxybenzo[d]thiazol-2(3H)-one ditrifluoroacetate] |
| 0.1 µM | 0.8 | 0.2 µM | O=C(c1nc2ccccc2s1)N1CCOC2(CCN(CCOc3ccc(CNC[C@H](O)c4ccc(O)c5[nH]c(=O)sc45)cc3)CC2)C1 [Example 106, (R)-7-(2-(4-(2-(4-(Benzo[d]thiazole-2-carbonyl)-1-oxa-4,9-diazaspiro[5.5]undecan-9-yl)ethoxy)benzylamino)-1-hydroxyethyl)-4-hydroxybenzo[d]thiazol-2(3H)-one formate] |
| 0.0501 µM | 0.9 | 0.0002 µM | CC(C)c1nc(C(=O)N2CCOC3(CCN(Cc4cccc(OCCNC[C@H](O)c5ccc(O)c6[nH]c(=O)sc56)c4)CC3)C2)cs1 [Example 64, (R)-4-Hydroxy-7-(1-hydroxy-2-(2-(3-((4-(2-isopropylthiazole-4-carbonyl)-1-oxa-4,9-diazaspiro[5.5]undecan-9-yl)methyl)phenoxy)ethylamino)ethyl)benzo[d]thiazol-2(3H)-one ditrifluoroacetate] |
| 0.00501 µM | 0.9 | 0.0631 µM | COC(=O)c1ccc(C(=O)N2CCOC3(CCN(Cc4cccc(CCNC[C@H](O)c5ccc(O)c6[nH]c(=O)ccc56)c4)CC3)C2)s1 [Example 31, (R)-Methyl 5-(9-(3-(2-(2-hydroxy-2-(8-hydroxy-2-oxo-1,2-dihydroquinolin-5-yl)ethylamino)ethyl)benzyl)-1-oxa-4,9-diazaspiro[5.5]undecane-4-carbonyl)thiophene-2-carboxylate ditrifluoroacetate] |
| 0.2 µM | 0.8 | 0.0316 µM | Cc1ccc(C(=O)N2CCOC3(CCN(CCc4cccc(CNC[C@H](O)c5ccc(O)c6[nH]c(=O)sc56)c4)CC3)C2)s1 [Example 20, (R)-4-Hydroxy-7-(1-hydroxy-2-(3-(2-(4-(5-methylthiophene-2-carbonyl)-1-oxa-4,9-diazaspiro[5.5]undecan-9-yl)ethyl)benzylamino)ethyl)benzo[d]thiazol-2(3H)-one ditrifluoroacetate] |
| 0.00501 µM | 0.9 | 0.002 µM | Cc1ccc(C(=O)N2CCOC3(CCN(Cc4cccc(CCNC[C@H](O)c5ccc(O)c6[nH]c(=O)ccc56)c4)CC3)C2)s1 [Example 9, (R)-8-Hydroxy-5-(1-hydroxy-2-(3-((4-(5-methylthiophene-2-carbonyl)-1-oxa-4,9-diazaspiro[5.5]undecan-9-yl)methyl)phenethylamino)ethyl)quinolin-2(1H)-one ditrifluoracetate] |
| 0.00631 µM | 0.8 | 0.00501 µM | CC(C)c1nc(C(=O)N2CCOC3(CCN(Cc4cccc(CCNC[C@H](O)c5ccc(O)c6[nH]c(=O)sc56)c4Cl)CC3)C2)cs1 [Example 80, (R)-7-(2-(2-Chloro-3-((4-(2-isopropylthiazole-4-carbonyl)-1-oxa-4,9-diazaspiro[5.5]undecan-9-yl)methyl)phenethylamino)-1-hydroxyethyl)-4-hydroxybenzo[d]thiazol-2(3H)-one ditrifluoroacetate] |
| 0.00501 µM | 1 | 0.00398 µM | Cc1csc(C(=O)N2CCOC3(CCN(Cc4cc(F)cc(CCNC[C@H](O)c5ccc(O)c6[nH]c(=O)sc56)c4)CC3)C2)c1 [Example 60, (R)-7-(2-(3-Fluoro-5-((4-(4-methylthiophene-2-carbonyl)-1-oxa-4,9-diazaspiro[5.5]undecan-9-yl)methyl)phenethylamino)-1-hydroxyethyl)-4-hydroxybenzo[d]thiazol-2(3H)-one ditrifluoroacetate] |
| 0.00158 µM | 1 | 0.00398 µM | Cc1ccc(C(=O)N2CCOC3(CCN(Cc4cc(CCNC[C@H](O)c5ccc(O)c6[nH]c(=O)sc56)ccc4F)CC3)C2)s1 [Example 29, (R)-7-(2-(4-Fluoro-3-((4-(5-methylthiophene-2-carbonyl)-1-oxa-4,9-diazaspiro[5.5]undecan-9-yl)methyl)phenethylamino)-1-hydroxyethyl)-4-hydroxybenzo[d]thiazol-2(3H)-one ditrifluoroacetate] |
| 0.0316 µM | 0.8 | 0.000794 µM | Cc1ccc(C(=O)N2CCOC3(CCN(CCCCCCCCCNC[C@H](O)c4ccc(O)c5[nH]c(=O)sc45)CC3)C2)s1 [Example 111, (R)-4-Hydroxy-7-(1-hydroxy-2-(9-(4-(5-methylthiophene-2-carbonyl)-1-oxa-4,9-diazaspiro[5.5]undecan-9-yl)nonylamino)ethyl)benzo[d]thiazol-2(3H)-one formate] |
| 1.26 µM | 0.7 | 0.0126 µM | Cc1nc(C(=O)N2CCOC3(CCN(CCOc4cccc(CNC[C@H](O)c5ccc(O)c6[nH]c(=O)ccc56)c4)CC3)C2)cs1 [Example 94, (R)-8-Hydroxy-5-(1-hydroxy-2-(3-(2-(4-(2-methylthiazole-4-carbonyl)-1-oxa-4,9-diazaspiro[5.5]undecan-9-yl)ethoxy)benzylamino)ethyl)quinolin-2(1H)-one ditrifluoroacetate] |
| 0.0501 µM | 0.5 | 0.0501 µM | Cc1nc(C(=O)N2CCOC3(CCN(Cc4ccc(CCNC[C@H](O)c5ccc(O)c6[nH]c(=O)ccc56)cc4)CC3)C2)cs1 [Example 17, (R)-8-Hydroxy-5-(1-hydroxy-2-(4-((4-(2-methylthiazole-4-carbonyl)-1-oxa-4,9-diazaspiro[5.5]undecan-9-yl)methyl)phenethylamino)ethyl)quinolin-2(1H)-one ditrifluoroacetate] |
| 0.0398 µM | 1.0 | 0.00398 µM | Cc1nc(C(=O)N2CCOC3(CCN(CCCOc4ccc(CNC[C@H](O)c5ccc(O)c6[nH]c(=O)sc56)cc4)CC3)C2)cs1 [Example 8, (R)-4-Hydroxy-7-(1-hydroxy-2-(4-(3-(4-(2-methylthiazole-4-carbonyl)-1-oxa-4,9-diazaspiro[5.5]undecan-9-yl)propoxy)benzylamino)ethyl)benzo[d]thiazol-2(3H)-one ditrifluoroacetate] |
| 0.01 µM | 0.9 | 0.00158 µM | CCCc1cc(C(=O)N2CCOC3(CCN(Cc4cccc(CCNC[C@H](O)c5ccc(O)c6[nH]c(=O)sc56)c4)CC3)C2)cs1 [Example 267, (R)-4-Hydroxy-7-(1-hydroxy-2-(3-((4-(5-propylthiophene-3-carbonyl)-1-oxa-4,9-diazaspiro[5.5]undecan-9-yl)methyl)phenethylamino)ethyl)benzo[d]thiazol-2(3H)-one ditrifluoroacetate] |
| 0.0631 µM | 0.9 | 0.00501 µM | CC(C)c1nc(C(=O)N2CCOC3(CCN(Cc4cc(CCNC[C@H](O)c5ccc(O)c6[nH]c(=O)sc56)ccc4Cl)CC3)C2)cs1 [Example 61, (R)-7-(2-(4-Chloro-3-((4-(2-isopropylthiazole-4-carbonyl)-1-oxa-4,9-diazaspiro[5.5]undecan-9-yl)methyl)phenethylamino)-1-hydroxyethyl)-4-hydroxybenzo[d]thiazol-2(3H)-one ditrifluoroacetate] |
| 0.00794 µM | 0.8 | 0.01 µM | CC(C)Cc1nc(C(=O)N2CCOC3(CCN(Cc4cccc(CCNC[C@H](O)c5ccc(O)c6[nH]c(=O)sc56)c4F)CC3)C2)cs1 [Example 72, (R)-7-(2-(2-Fluoro-3-((4-(2-isobutylthiazole-4-carbonyl)-1-oxa-4,9-diazaspiro[5.5]undecan-9-yl)methyl)phenethylamino)-1-hydroxyethyl)-4-hydroxybenzo[d]thiazol-2(3H)-one ditrifluoroacetate] |
| 0.251 µM | 0.9 | 0.251 µM | CC(C)c1nc(C(=O)N2CCOC3(CCN(Cc4cccc5c(CNC[C@H](O)c6ccc(O)c7[nH]c(=O)sc67)cccc45)CC3)C2)cs1 [Example 62, (R)-4-Hydroxy-7-(1-hydroxy-2-((5-((4-(2-isopropylthiazole-4-carbonyl)-1-oxa-4,9-diazaspiro[5.5]undecan-9-yl)methyl)naphthalen-1-yl)methylamino)ethyl)benzo[d]thiazol-2(3H)-one ditrifluoroacetate] |
| 0.00631 µM | 1 | 0.0126 µM | Cc1ccc(C(=O)N2CCOC3(CN(Cc4cccc(CCNC[C@H](O)c5ccc(O)c6[nH]c(=O)sc56)c4)C3)C2)s1 [Example 33, (R)-4-Hydroxy-7-(1-hydroxy-2-(3-((8-(5-methylthiophene-2-carbonyl)-5-oxa-2,8-diazaspiro[3.5]nonan-2-yl)methyl)phenethylamino)ethyl)benzo[d]thiazol-2(3H)-one ditrifluoroacetate] |
